In brackets after ≈: the same amount, converted by molar mass.

The conditions of the data set: buffer; pH 7.4; 200.0 µM.
Broadly, the kinetic solubility is solubility judged after dilution from a stock solution rather than from solid. Consider `CCc1ccnc(NS(=O)(=O)c2ccc3c(c2)CCO3)c1`, for which the kinetic solubility is 17.6 µg/mL (≈ 57.8 µM).
Next, `OC(CCN1CCOCC1)c1ccccc1` (centres undefined): 31.3 µg/mL (≈ 141 µM).
Next, `Cc1ccc(NC(=O)N2CCCC2C(=O)NCC2CCCO2)cc1` (centres undefined): above 49.7 µg/mL; `C#CCn1ccc(O)c(Cc2c(F)cccc2Cl)c1=O`: above 43.8 µg/mL; `O=C(Nc1ccc(CN2CCS(=O)(=O)CC2)cc1)c1ccccc1`: 31.4 µg/mL (≈ 91.2 µM).
In the case of `CCC(=O)OCCNc1nc(-c2ccccc2)nc2ccccc12.Cl` it was 5.3 µg/mL; in that of `COc1ccc(OCCC(=O)N2CCN(C)CC2)cc1.Cl`, above 47.2 µg/mL.
`Oc1ccc(Cl)cc1CNc1cccc2cccnc12` showed a kinetic solubility of 0.5 µg/mL (≈ 1.76 µM).
The molecule `O=C(NCCCn1ccnc1)c1c(F)cccc1F` yielded a solubility (kinetic) of 38 µg/mL (≈ 143 µM).
Next, `Cc1cc(C)c2cc(C(=O)Nc3ccc4c(c3)OCO4)[nH]c2c1`: below 0.3 µg/mL; `N#C/C(=C\c1ccccc1)C(=O)NC1CC1`: above 31.8 µg/mL; `CC(=O)Nc1ccc(C(=O)Nc2cc(C)on2)cc1`: above 38.9 µg/mL.
Next, `Cc1ccc(O)c(Nc2ncnc3ccccc23)c1.Cl`: 4.5 µg/mL; `CCCCNC(=O)C1(NC(=O)Nc2ccccc2)CCCCC1`: 5.5 µg/mL (≈ 17.3 µM).
In the case of `COc1ccc(CCNC(=O)COc2ccc(C)nc2[N+](=O)[O-])cc1` it was above 51.8 µg/mL.
Regarding `CC(C)C(NS(=O)(=O)c1ccccc1)C(=O)NC1CCCC1` (centres undefined), the kinetic solubility is above 48.7 µg/mL.
Next, `Cc1ccc(N2CCN(C(=S)Nc3ccccc3C)CC2)cc1`: 0.6 µg/mL (≈ 1.84 µM); `CCOc1ccc(NS(=O)(=O)c2cc(NC(=O)C3CC3)ccc2C)cc1Br`: 3 µg/mL (≈ 6.62 µM); `NC(=O)c1ccccc1NCC(=O)c1ccc(Cl)cc1`: 2.9 µg/mL (≈ 10 µM).
With `OCCNc1c2ccccc2nc2ccccc12`, the kinetic solubility was determined as 33.7 µg/mL (≈ 141 µM).
In turn, `O=C(Nc1ccccc1)Nc1ccccc1Br` showed a kinetic solubility of 2.1 µg/mL (≈ 7.21 µM).
Next, `O=c1[nH]c(=S)[nH]c2nc(-c3ccccc3)cnc12`: above 38.4 µg/mL; `NC(=O)Cn1cc(C(=O)C(=O)N2CCOCC2)c2ccccc21`: above 47.3 µg/mL; `O=C(Nc1cccc(S(=O)(=O)NC2=NCCC2)c1)c1ccccc1F`: above 54.2 µg/mL.
In the case of `COC(=O)c1ccc(N2C(=O)C3C4C=CC(CC4)C3C2=O)cc1` (centres undefined) it was 20.1 µg/mL (≈ 64.6 µM); in that of `O=C1CN(C(=O)COC(=O)c2cccs2)c2ccccc2N1`, 29.2 µg/mL (≈ 92.3 µM).
Next, `Cc1ccc(OCC(=O)NCCCNC(=O)c2ccncc2)cc1`: above 49.1 µg/mL; `COc1cccc(C(=O)N2CCCN(C)CC2)c1OC`: 36.2 µg/mL (≈ 130 µM).
With `CC(=O)C1C(c2ccc([N+](=O)[O-])cc2)c2c(noc2C)CC1(C)O` (centres undefined), the solubility (kinetic) was above 49.6 µg/mL.
In the case of `O=C(NCCCNC(=O)c1ccco1)c1ccc(Cl)cc1` it was above 46 µg/mL; in that of `CC(C)c1nc2sc3c(c2c(=O)[nH]1)CC(C)(C)OC3`, 6.4 µg/mL (≈ 23 µM).
In the case of `CC(C)C(=O)Nc1cc2c3c(c1)CCN3C(=O)CC2` it was 38.7 µg/mL (≈ 150 µM).
In the case of `S=C(Nc1ccccc1)N1CCCCCCC1` it was above 37.3 µg/mL; in that of `O=C1c2ccccc2NC(c2ccc(O)cc2)N1c1ccccc1` (centres undefined), 9.5 µg/mL (≈ 30 µM).
In the case of `CC(=O)N(c1ccc(Cl)cc1)c1nc(C)cc(C)c1C#N`, the solubility (kinetic) is above 45 µg/mL.
In the case of `CN(C)CCCNc1nc(N)c([N+](=O)[O-])c(NCCO)n1` it was 39 µg/mL (≈ 130 µM); in that of `COc1ccc(NC(=O)c2ccc3nc[nH]c3c2)c(OC)c1`, 42.9 µg/mL (≈ 144 µM); in that of `CC(Sc1ncnc2sccc12)C(=O)Nc1ccc(S(N)(=O)=O)cc1` (centres undefined), 8.7 µg/mL (≈ 22.1 µM).
In the case of `O=C(c1cc(Cl)ccc1O)N1CCN(S(=O)(=O)Cc2ccccc2)CC1` it was above 59.2 µg/mL.
In the case of `NC(=O)COC(=O)C1c2ccccc2Oc2ccccc21` it was 41.9 µg/mL (≈ 148 µM).
Turning to `FC(F)(F)Oc1ccc(NC2=NCCCS2)cc1`, the kinetic solubility was 41.4 µg/mL (≈ 150 µM).
Next, `COc1cc(SC)ccc1C(=O)OCC(=O)NC(=O)NC(C)C`: 10.9 µg/mL (≈ 32 µM); `CC(C)(C)CC(=O)Nc1ccc(S(=O)(=O)NC2=NCCCCC2)cc1`: above 54.8 µg/mL.
In the case of `Cc1[nH]c2ccccc2c1C(=O)C(=O)N1CCN(C)CC1` it was above 42.8 µg/mL; in that of `CC(=O)c1cccc(Nc2nc(-c3sc(C)nc3C)cs2)c1`, 1 µg/mL (≈ 3.04 µM).
In the case of `CC(C)c1onc(C(=O)Nc2ccc3c(c2)OCO3)c1[N+](=O)[O-]` it was above 47.9 µg/mL; in that of `Cc1noc(NS(=O)(=O)c2ccc(NC(=O)c3cccc(S(=O)(=O)Nc4ccccc4F)c3)cc2)c1C`, 71.3 µg/mL (≈ 131 µM); in that of `NC(=O)c1ccc(NC(=O)c2cccc3c2OCCCO3)cc1`, 14.5 µg/mL (≈ 46.4 µM).
`O=C(Nc1ccc(Cl)cc1Cl)C1CCCO1` (centres undefined) gave a solubility (kinetic) above 39 µg/mL.
In the case of `Cc1ccnc(NC(=O)c2cc3cc(F)ccc3s2)c1` it was 5.2 µg/mL (≈ 18.2 µM); in that of `CSc1ccccc1C(=O)OCC(=O)N1CCCC1=O`, above 44 µg/mL.
In the case of `CCOc1ccccc1C(=O)NCC(=O)OCC(=O)c1c(N)n(C)c(=O)n(C)c1=O` it was 4.1 µg/mL (≈ 9.8 µM); in that of `CSc1ccccc1NC(=O)Cn1c([N+](=O)[O-])cnc1C`, 41.5 µg/mL (≈ 135 µM); in that of `CC1CC(C)CN(S(=O)(=O)c2cccc3nonc23)C1` (centres undefined), 5.5 µg/mL (≈ 18.6 µM).
Next, `CC(=O)NC(NC(=S)Nc1ccc(S(N)(=O)=O)cc1)C(Cl)(Cl)Cl` (centres undefined): 62.6 µg/mL (≈ 149 µM); `COn1c(-c2ccccc2)c(C=O)c2ccccc21`: 2.4 µg/mL (≈ 9.55 µM).
With `S=C(NCc1ccncc1)Nc1ccc(Br)cc1`, the kinetic solubility was above 48.3 µg/mL.
Next, `COc1ccc(CC(=O)Nc2ccc(N3CCCC3)c(C)c2)cc1`: 8.9 µg/mL (≈ 27.4 µM).
Next, `Cc1onc(-c2ccccc2)c1C(=O)NCC(O)c1ccccc1` (centres undefined): above 48.4 µg/mL.
In turn, `O=C(COc1cccnc1[N+](=O)[O-])NCc1ccc(F)cc1` came in with a solubility (kinetic) above 45.8 µg/mL.
In the case of `COC(=O)c1ccccc1NC(=O)N1CCN(c2ccc(F)cc2)CC1` it was 4.4 µg/mL (≈ 12.3 µM).
Next, `Cc1cnc(C(=O)OCC(=O)Nc2cc(S(=O)(=O)N3CCOCC3)ccc2Cl)cn1`: above 68.2 µg/mL; `C=CCNc1nc(Cl)nc(NC2CCCCC2)n1`: 6.9 µg/mL (≈ 25.8 µM).
In the case of `Cc1ccc(Cl)cc1NC(=O)NCc1ccccn1` it was 36.5 µg/mL (≈ 132 µM); in that of `O=c1[nH]c(=O)n(C2OC(CO)C(O)C2O)cc1Br` (centres undefined), above 48.5 µg/mL; in that of `CCC1Oc2ccccc2N(CC(=O)NC2CCCC2)C1=O` (centres undefined), 42.2 µg/mL (≈ 140 µM).
The molecule `O=C1NC(C(=O)O)=CC(c2ccc([N+](=O)[O-])cc2)N1` (centres undefined) showed a kinetic solubility above 39.5 µg/mL.
Next, `COc1cc(S(=O)(=O)N2CCN(C(=O)C3CC3)CC2)ccc1NC(C)=O`: above 57.2 µg/mL.
Turning to `COc1cc(OC)cc(C(=O)NCC(=O)N2CCN(S(=O)(=O)c3ccccc3F)CC2)c1`, the kinetic solubility stood at 52.1 µg/mL (≈ 112 µM).
Next, `COc1ccc2oc(C(=O)N3CCN(c4ncccn4)CC3)c(C)c2c1`: 4.8 µg/mL (≈ 13.6 µM); `Cc1cccc(NS(=O)(=O)c2ccc(Cl)cc2)n1`: 31.6 µg/mL (≈ 112 µM).
Molecule `O=S(=O)(Cc1ccccc1)NCCc1ccc(F)cc1` came in with a solubility (kinetic) of 34.3 µg/mL (≈ 117 µM).
In the case of `COc1ccc(CCC(=O)NCc2cccc(C(F)(F)F)c2)cc1` it was 10.3 µg/mL (≈ 30.5 µM).
With `O=C1SCCC1NC(=O)C(c1ccccc1)c1ccccc1` (centres undefined), the solubility (kinetic) is above 46.7 µg/mL.

Values taken from PubChem BioAssay AID1996.
